Assay type in all cases: cell-based
The test system of assay [1] is Spores of T. Mentagrophytes. Kind of assay: In vitro antimycotic activity, MIC, spores of T. mentagrophytes. The settings on record: for activity against T. mentagrophytes: in vitro, in words; for MIC: Trichophyton mentagrophytes, 96 h. The method, then:
(§1) A laboratory propagated strain of C. albicans, originally isolated from an infected skin lesion of a patient, was grown in Mueller-Hinton broth for 18 hours at 35° C. Plates were then seeded with the broth culture and allowed to air-dry at room temperature (22° C.) for about 10-15 minutes. Forty lambda of the 2% aqueous solutions or of serial half-step dilutions in water were then pipetted onto the seeded Mueller-Hinton agar plates. The plates were then incubated for 24 hours at 35° C. and zones of inhibition were then recorded. The Minimum Inhibitory Concentration (MIC) was the lowest concentration of the test material which produced a zone of inhibition against the organism. The MIC for each test material (antihistamine) is listed in the enclosed table. Table 2 lists the MIC's against C. albicans while Table 3 lists the MIC's against in vitro-grown spores of the human pathogen T. mentagrophytes. This strain was isolated from a human infection and was grown on Sabourand-Dextrose agar for 2 weeks. The spores were collected by flooding the agar plates after the 2 week growth period with a 0.01% solution of Tween-80 (sorbitol ester) and then filtering the Tween solution through gauze mesh to collect the suspension of spores. Sabourand-Dextrose agar plates are then seeded with the spore suspension. After air-drying, 40 lambda of each test solution is pipetted onto the plates and the plates left to incubate for 4 days at 22° C.

In another assay the test system is Pseudomonas aeroginosa. As to the kind of experiment: In vitro zone of inhibition screening, MIC, Pseudomonas aeroginosa. The note with it: for MIC: Pseudomonas. The method, then: (§2) The 2% solutions listed above were diluted further with sterile water, using serial half-step dilutions. Forty lambda of each were then pipetted onto seeded Mueller-Hinton agar plates. The agar plates were then incubated for 24 hours at 35° C. and zones of inhibition were then recorded. The Minimum Inhibitory Concentration (MIC) was the lowest concentration of the test material which produced a zone of inhibition against the organism.
(§3) Stock cutaneous strains of each organism were grown in Mueller-Hinton broth for 18 hours at 35° C. Plates were seeded with the 18 hour broth culture, allowed to air dry at room temperature (about 10 minutes) and then used for determination of zones of inhibition as outlined above.

Another assay has as its system Cutaneous Bacteria. As to the kind of experiment: In vitro zone of inhibition screening, overall (cutaneous bacteria). The note with it: for Rank Order: highest inhibition (rank 1) to lowest (rank 5); for minimum inhibitory concentrations as low as: in vitro antibacterial testing, lowest MIC. The method, then:
as §2, §3

Another assay relates to C. albicans. As to the kind of experiment: In vitro antimycotic activity, MIC, C. albicans. The settings on record: for MIC: Candida albicans. The method, then: as §1
In a further assay the test system is Escherichia coli. Kind of assay: In vitro zone of inhibition screening, MIC, Escherichia coli. The note with it: for MIC: Escherichia coli. The method, then: as §2, §3
For a further assay, the system named is Staphylococcus aureus. As to the kind of experiment: In vitro zone of inhibition screening, MIC, Staphylococcus aureus. The note with it: aqueous solution, seeded Mueller-Hinton agar, 24 hours at 35° C.; for MIC: Staphylococcus aureus, read-out: Minimum Inhibitory Concentration, SA. The method, then:
as §2, §3

A further assay deals with Micrococcus luteous. Kind of assay: In vitro zone of inhibition screening, MIC, Micrococcus luteous. The settings on record: aqueous solution, seeded Mueller-Hinton agar, 24 hours at 35° C.; for MIC: Micrococcus, read-out: Minimum Inhibitory Concentration, ML. The method, then: as §2, §3
The test system of assay [2] is Corenybacterium minutissimum. Kind of assay: In vitro zone of inhibition screening, MIC, Corenybacterium minutissimum. The method, then:
as §2, §3

Where [3] appears, read: aqueous solution, Sabourand-Dextrose agar, 4 days at 22° C.
Setting [4] is: aqueous solution, seeded Mueller-Hinton agar, 24 hours at 35° C., read-out: Minimum Inhibitory Concentration, PA.
[5] abbreviates: aqueous solution, Mueller-Hinton agar, 24 hours at 35° C., read-out: MIC, C. albicans.
Setting [6] is: aqueous solution, seeded Mueller-Hinton agar, 24 hours at 35° C., read-out: Minimum Inhibitory Concentration, EC.
Setting [7] is: aqueous solution, seeded Mueller-Hinton agar, 24 hours at 35° C., read-out: Minimum Inhibitory Concentration, CM.
[8] abbreviates: aqueous solution, Sabourand-Dextrose agar, 4 days at 22° C., read-out: MIC, spores of T. Mentagrophytes.
Setting [9] is: aqueous solution, seeded Mueller-Hinton agar, 24 hours at 35° C.
The mark [10] stands for this setting: aqueous solution, Mueller-Hinton agar, 24 hours at 35° C.

Values after ≈ are worked out from the molar mass of the structure shown. Read-outs that look alike come from different tables or passages of the source.

For `Cc1ccc(/C(=C\CN2CCCC2)c2ccccn2)cc1` [Triprolidine, triprolidine], the “MIC, spores of T. Mentagrophytes” value in assay [1] (setting [3]) is “No inhibition”. Also, the “activity against T. mentagrophytes” value in assay [1] is recorded as “ineffective”. In addition, the MIC in the assay with Pseudomonas aeroginosa (setting [4]) turned out to be 10000 µg/mL (≈ 35.9 mM); in the assay with C. albicans (setting [5]), 20000 µg/mL (≈ 71.8 mM); in the assay with Escherichia coli (setting [6]), 5000 µg/mL (≈ 18 mM); in the assay on Staphylococcus aureus, 10000 µg/mL (≈ 35.9 mM); with Micrococcus luteous, 10000 µg/mL (≈ 35.9 mM); in assay [2] (setting [7]) it was 5000 µg/mL (≈ 18 mM). Besides, the “Rank Order” value in the assay on Cutaneous Bacteria is 3. The “minimum inhibitory concentrations as low as” value in the assay with Cutaneous Bacteria is recorded as 0.5-1%.

Consider `CN(C)CCC(c1ccc(Cl)cc1)c1ccccn1` (stereo not shown) [Chlorpheniramine, chlorpheniramine], for which the “MIC, spores of T. Mentagrophytes” value in assay [1] (setting [3]) is “No inhibition”. Also, the “activity against T. mentagrophytes” value in assay [1] is “ineffective”. Also, the MIC in the assay on Pseudomonas aeroginosa (setting [4]) worked out at 10000 µg/mL (≈ 36.4 mM); with C. albicans (setting [5]), 20000 µg/mL (≈ 72.8 mM); in the assay on Escherichia coli (setting [6]), 5000 µg/mL (≈ 18.2 mM); with Staphylococcus aureus, 10000 µg/mL (≈ 36.4 mM); with Micrococcus luteous it was 5000 µg/mL (≈ 18.2 mM); in assay [2] (setting [7]), 5000 µg/mL (≈ 18.2 mM). In addition, the “Rank Order” value with Cutaneous Bacteria is recorded as 2.

As to `CN(C)CCN(Cc1ccccc1)c1ccccn1` [Tripelennamine, tripelennamine], the MIC worked out at 20000 µg/mL (≈ 78.3 mM) in assay [1] (setting [8]); 10000 µg/mL (≈ 39.2 mM) in the assay on Pseudomonas aeroginosa (setting [4]); 20000 µg/mL (≈ 78.3 mM) with C. albicans (setting [5]); 5000 µg/mL (≈ 19.6 mM) in the assay on Escherichia coli (setting [6]); 10000 µg/mL (≈ 39.2 mM) with Staphylococcus aureus; 10000 µg/mL (≈ 39.2 mM) in the assay on Micrococcus luteous. The MIC in assay [2] (setting [7]) is 5000 µg/mL (≈ 19.6 mM). Also, in the assay on Cutaneous Bacteria, the “Rank Order” value is recorded as 3. In addition, in the assay on Cutaneous Bacteria, the “minimum inhibitory concentrations as low as” value is listed as 0.5-1%.

As to `CN(C)CCC(c1ccc(Br)cc1)c1ccccn1` (stereo not shown) [Brompheniramine, brompheniramine], the MIC is 20000 µg/mL (≈ 62.6 mM) in assay [1] (setting [8]); 10000 µg/mL (≈ 31.3 mM) with Pseudomonas aeroginosa (setting [4]); 20000 µg/mL (≈ 62.6 mM) in the assay with C. albicans (setting [5]); 5000 µg/mL (≈ 15.7 mM) with Escherichia coli (setting [6]); 10000 µg/mL (≈ 31.3 mM) in the assay on Staphylococcus aureus; 5000 µg/mL (≈ 15.7 mM) with Micrococcus luteous. In addition, the MIC in assay [2] (setting [7]) worked out at 3000 µg/mL (≈ 9.4 mM). Besides, in the assay with Cutaneous Bacteria, the “Rank Order” value stood at 2. Also, in the assay with Cutaneous Bacteria, the “minimum inhibitory concentrations as low as” value is listed as 0.5-1%.

`CN(C)CCOC(c1ccccc1)c1ccccc1` [Dimenhydrinate, dimenhydrinate]: in assay [1] (setting [3]), the “MIC, spores of T. Mentagrophytes” value came to 20000 µg/mL. Also, the “Minimum Inhibitory Concentration, PA” value in the assay on Pseudomonas aeroginosa (setting [9]) was 10.0 mg/mL. Moreover, in the assay on Cutaneous Bacteria, the “Rank Order” value stood at 3 and the “minimum inhibitory concentrations as low as” value was found to be 0.5%. Moreover, the “MIC, C. albicans” value against C. albicans (setting [10]) stood at 20000 µg/mL (≈ 78.3 mM). Moreover, the “Minimum Inhibitory Concentration, EC” value with Escherichia coli (setting [9]) was determined as 5.0 mg/mL. Further, the “Minimum Inhibitory Concentration, SA” value in the assay on Staphylococcus aureus was 10.0 mg/mL. Further, the “Minimum Inhibitory Concentration, ML” value with Micrococcus luteous came out at 10.0 mg/mL. The “Minimum Inhibitory Concentration, CM” value in assay [2] (setting [9]) was 5.0 mg/mL.

As for `CN(C)CCOC(c1ccccc1)c1ccccc1` [Diphenhydramine, diphenhydramine], the MIC was determined as 10000 µg/mL (≈ 39.2 mM) in assay [1] (read-out: MIC, spores of T. Mentagrophytes, aqueous solution, Sabourand-Dextrose agar, 4 days at 22° C.); 5000 µg/mL (≈ 19.6 mM) with Pseudomonas aeroginosa (24 h, read-out: Minimum Inhibitory Concentration, PA, aqueous solution, seeded Mueller-Hinton agar, 24 hours at 35° C.); 10000 µg/mL (≈ 39.2 mM) in the assay with C. albicans (24 h, read-out: MIC, C. albicans, aqueous solution, Mueller-Hinton agar, 24 hours at 35° C.); 2500 µg/mL (≈ 9.79 mM) with Escherichia coli (24 h, read-out: Minimum Inhibitory Concentration, EC, aqueous solution, seeded Mueller-Hinton agar, 24 hours at 35° C.); 2500 µg/mL (≈ 9.79 mM) in assay [2] (24 h, read-out: Minimum Inhibitory Concentration, CM, aqueous solution, seeded Mueller-Hinton agar, 24 hours at 35° C.). For the same compound, the “Rank Order” value in the assay with Cutaneous Bacteria is listed as 1. The “minimum inhibitory concentrations as low as” value with Cutaneous Bacteria is recorded as 0.25%. Further, the “Minimum Inhibitory Concentration, SA” value in the assay on Staphylococcus aureus worked out at 2.5 mg/mL. Moreover, in the assay with Micrococcus luteous, the “Minimum Inhibitory Concentration, ML” value came out at 2.5 mg/mL.

Regarding `CN(C)CCOC(C)(c1ccccc1)c1ccccn1` (stereo not shown) [Doxylamine], the “MIC, spores of T. Mentagrophytes” value in assay [1] (setting [3]) was “No inhibition”. Besides, the “Rank Order” value in the assay on Cutaneous Bacteria is given as 5. In addition, the “MIC, C. albicans” value in the assay with C. albicans (setting [10]) was “No inhibition”.

For the compound `COc1ccc(CN(CCN(C)C)c2ccccn2)cc1` [Pyrilamine], the MIC in assay [1] (setting [8]) came out at 20000 µg/mL (≈ 70.1 mM); in the assay on Escherichia coli (setting [6]), 10000 µg/mL (≈ 35 mM); in assay [2] (setting [7]), 10000 µg/mL (≈ 35 mM). Further, the “activity against T. mentagrophytes” value in assay [1] was “showed activity”. Besides, the “Rank Order” value in the assay on Cutaneous Bacteria came out at 4. For the same compound, the “MIC, C. albicans” value against C. albicans (setting [10]) was “No inhibition”.
